# Test results from PubChem BioAssay (NCI).
#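 Where inhibition never reached the appropriate level, the endpoint shown equals the highest concentration tested. Otherwise, values were interpolated linearly from a five-concentration, 48-hour dose response in 96-well plates. The concentration for 50% growth inhibition is given as GI50. TGI is the concentration that stops growth completely.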
# Columns and labels:
# Assay in all cases: NCI anticancer screen, dose series, 48 h
# DU-145 prostate = test system: DU-145 prostate
# SF-295 CNS = test system: SF-295 CNS
# HOP-62 NSCLC = test system: HOP-62 NSCLC
# MDA-MB-435 = test system: MDA-MB-435
# SK-MEL-28 melanoma = test system: SK-MEL-28 melanoma
# SK-MEL-5 melanoma = test system: SK-MEL-5 melanoma
# HOP-92 NSCLC = test system: HOP-92 NSCLC
# MDA-MB-231 breast = test system: MDA-MB-231 breast
# UO-31 renal = test system: UO-31 renal
# A498 renal = test system: A498 renal
Structure (SMILES),GI50 (DU-145 prostate) [µM],TGI (DU-145 prostate) [µM],GI50 (SF-295 CNS) [µM],TGI (SF-295 CNS) [µM],GI50 (HOP-62 NSCLC) [µM],TGI (HOP-62 NSCLC) [µM],GI50 (MDA-MB-435) [µM],TGI (MDA-MB-435) [µM],GI50 (SK-MEL-28 melanoma) [µM],TGI (SK-MEL-28 melanoma) [µM],GI50 (SK-MEL-5 melanoma) [µM],TGI (SK-MEL-5 melanoma) [µM],GI50 (HOP-92 NSCLC) [µM],TGI (HOP-92 NSCLC) [µM],GI50 (MDA-MB-231 breast) [µM],TGI (MDA-MB-231 breast) [µM],GI50 (UO-31 renal) [µM],TGI (UO-31 renal) [µM],TGI (A498 renal) [µM]
CCN(CC)C(=S)SSC(C)C,17.1,35.2,17.9,49,24.7,86.7,16.1,49.5,11.1,23.1,11.6,24.2,15.2,36.1,14.6,32.5,8.99,24.1,
COC(=O)C1C=CCC2CCCCC21N1CCCC1 (stereo unspecified),,,,> 100,,> 100,,,,> 100,,> 100,,> 100,,,,> 100,> 100
COc1ccc(-c2ccc(CC(=O)O)cc2)cc1OC,,,,> 100,,> 100,,,,> 100,,> 100,,> 100,,,,> 100,> 100
O=C1CC23CCCCCCCCCCC2(C1)CC(=O)C3 (stereo unspecified),,,,> 100,,,,,,> 100,,32.4,,51.8,,,,61.2,
Cn1c(=O)oc2cc(C3CCC(=O)N3Cc3csc(-c4ccccc4)n3)ccc21 (stereo unspecified),,,,> 100,,> 100,,,,> 100,,> 100,,,,,,> 100,
COc1cc(N2C(=O)[C@H](Cl)C2c2ccc(SC)cc2)cc(OC)c1OC (stereo partly specified),0.168,> 100,0.0394,> 100,0.263,> 100,,,,,0.0522,0.468,0.214,> 100,0.238,> 100,,,
N/N=C(/Cc1ccccc1)NNO,,,,> 100,,,,,,> 100,,> 100,,> 100,,,,,> 100
CC(=O)N1[C@H](C(=O)O)CS[C@H]1c1ccc(F)cc1,,,,> 100,,> 100,,,,> 100,,> 100,,> 100,,,,> 100,> 100
O=C(CC1=Nc2nnc(CCCCCCCc3nnc4n3C(=O)C(CC(=O)c3ccc5ccccc5c3)=N4)n2C1=O)c1ccc2ccccc2c1,,,,> 100,,> 100,,,,> 100,,,,> 100,,,,> 100,
COC(=O)C(C(=O)C(=O)Nc1c(C)cccc1C(C)(C)C)c1nc2ccc(Cl)cc2[nH]c1=O (stereo unspecified),,,,> 100,,> 100,,> 100,,> 100,,> 100,,> 100,,> 100,,> 100,> 100
CN(C)C(=S)/N=c1\ss/c(=N\C(=S)N(C)C)n1-c1cccc(Cl)c1,,,,> 100,,> 100,,,,> 100,,> 100,,,,,,> 100,> 100
CN1CCCC2[C@@H]3CCC4c5nonc5CC[C@]4(C)C3CC[C@@]21C (stereo partly specified),,,,> 100,,,,,,> 100,,> 100,,,,,,> 100,
Cc1ccc(C2=CC(=O)c3ccccc3C2=O)n1-c1ccccc1,,,,> 100,,> 100,,,,> 100,,> 100,,,,,,,
C1=CC(=P(c2ccccc2)(c2ccccc2)c2ccccc2)C=C1,,,,30.8,,41.6,,,,19.6,,30.3,,22.8,,,,30.8,
COc1cc2c(cc1C)NC(=O)/C2=C/c1ccnc2ccccc12,29.1,> 50,25.3,> 50,> 50,> 50,11.4,> 50,11.2,46.8,7.89,31.3,12.4,> 50,9.49,32.6,18.9,> 50,
O=c1c2cccnc2ncn1CCCN1CCCCC1,,,,> 100,,> 100,,,,> 100,,> 100,,> 100,,,,> 100,
Cc1cccc(N2C(=O)/C(=C/C(Cl)=C/c3ccc([N+](=O)[O-])cc3)SC2=S)c1C,3.98,> 100,2.28,5.25,2.69,9.02,,,2.37,7,1.49,2.91,,,2.2,5.52,1.29,2.56,
COc1cc(O)ccc1C(=S)SC,,> 100,,> 100,,> 100,,> 100,,> 100,,> 100,,> 100,,88.4,,> 100,
CC1CCC2C(C)C(=O)OC2C2(C)C(=O)C=CC12 (stereo unspecified),,> 10,,> 10,,> 10,,> 10,,> 10,,> 10,,> 10,,> 10,,> 10,
O=C(c1ccccc1)C1N=NN(Cc2ccccc2[N+](=O)[O-])C1C(=O)c1ccccc1 (stereo unspecified),,,,> 100,,> 100,,,,> 100,,> 100,,> 100,,,,> 100,
O=C(Nc1ccc(Cl)cc1C(F)(F)F)C(=O)Nn1c(=S)[nH]c2ccccc2c1=O,,,,> 100,,> 100,,> 100,,> 100,,> 100,,> 100,,> 100,,> 100,> 100
O=C1NC(O)n2c(=O)[nH]c(=O)n21 (stereo unspecified),,,,> 100,,> 100,,,,> 100,,> 100,,> 100,,,,> 100,
c1cnc2c(c1)-n1cccc1C1(CCCCC1)NN2,,,,> 100,,> 100,,,,> 100,,> 100,,,,,,79.9,
CCOc1ccc(NC(=O)/C(CC(=O)c2c[n+](=O)c3ccccc3n2[O-])=N\OCCCc2ccccc2)cc1,,,,> 100,,> 100,,,,> 100,,,,99.6,,,,> 100,> 100
c1ccc2c(c1)[nH]c1c2nc2ccccn21,,,,> 100,,> 100,,,,> 100,,> 100,,> 100,,,,> 100,> 100
O=c1c(Cc2ccc3c(c2)OCO3)nnc2sc(-c3cc(F)c(Cl)cc3Cl)nn12,,,72.5,> 100,18.1,64.7,52.9,> 100,32.2,> 100,19.3,50.7,23,88.4,44.9,> 100,50.2,> 100,
